# Key:
# Type in all cases: in vivo, Sprague-Dawley rat
# [1] = Fat mass of Sprague-Dawley rats after 65 days' treatment; settings: for Fat Mass: average total fat mass after 65 days, n=10
# Description: (§1) Male Sprague-Dawley rats were used with average body weight 223 g. The rats were fed with standard chow.
# (§2) Before grouping, all animals were weighed at fasting state for 5 consecutive days. The first dose of the drug as indicated in Table 1 was administered on the next day after grouping; the dose was administered by gavage (t.i.d.) in a solution dose of […] body weight, and continued for a total of 65 days. Initially, each rat was treated accordingly with 0.25 mL drug solution; the dosage was then adjusted according to the body weight change of each rat, by increasing the dose by 0.05 mL for each 50 g body weight increment.
# (§3) Statistical analysis was performed with SPSS software (IBM). One-way ANOVA was performed.
# [2] = Overnight food intake in Sprague-Dawley rats during dosing; settings: daily overnight food intake, 65 days of treatment, n=10
# Description: as §1, §2
# (§4) Groups were fed overnight with 30 g chowrat after drug administration and food deprived during daytime. Overnight food intake was measured every morning, while fasting body weight was measured every Tuesday and Friday night.
# as §3
# [3] = Weight gain inhibition in Sprague-Dawley rats, 65 days' treatment
# Description: as §1, §2, §4, §3
# [4] = after 65 consecutive days of treatment
compound,measurement,setting,value
"CC(C)CC(N(C)C)C1(c2ccc(Cl)cc2)CCC1 (centres unmarked) [SIB, sibutramine]",Effect on fat mass,[1]; [4],reduced fat mass
same,Fat Mass,[1],25.5 ± 6.3 g
same,Fat Mass,[1]; listed as sibutramine,25.5 g
same,Average Food Intake During Dosing,[2],29.4 ± 0.9 g
same,Average Food Intake During Dosing,[2]; listed as sibutramine,29.4 g
same,Effect on body weight gain,[3]; [4],decreased body weight gain
same,Post-Dose body weight,"[3]; male Sprague-Dawley rats, gavage t.i.d., 65 days, fasting body weight, n=10",493.8 ± 13.0 g
same,ΔBW (increase of body weight),"[3]; male Sprague-Dawley rats, gavage t.i.d., 65 days, n=10",270.7 ± 11.6 g
same,ΔBW (increase of body weight),"[3]; male Sprague-Dawley rats, gavage t.i.d., 65 days, n=10, listed as sibutramine",270.7 g
same,Relative Body Weight,"[3]; vs. GS control group, 65 days, n=10",-22.0 g
same,Weight Loss Ratio,"[3]; vs. GS control group, 65 days, n=10, listed as sibutramine",4.3%
